Holding throughout (assay): relative viability (nuclei count vs DMSO), 5 days (fraction); higher = more cells survive
Compound in the test “Metformin + Bortezomib”: CN(C)C(=N)NC(=N)N [Metformin] + CC(C)C[C@H](NC(=O)[C@H](Cc1ccccc1)NC(=O)c1cnccn1)B(O)O [Bortezomib] (partner 0.002 µM)
In short, it runs like this:
(§1)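 One day after seeding in 1536-well plates, lung cancer cell lines were dosed by pin tool. Dosing was either single-drug or a fixed anchor-drug dose plus five library-drug doses (not always all listed) in √10 steps. After 5 days, nuclei were stained in one fix-and-stain step and counted on 4× images, and relative viability is the nuclei count of treated wells over that of vehicle wells, given as the median of duplicate plates.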

Compound in the test “Metformin + Pemetrexed”: CN(C)C(=N)NC(=N)N [Metformin] + Nc1nc2[nH]cc(CCc3ccc(C(=O)N[C@@H](CCC(=O)O)C(=O)O)cc3)c2c(=O)[nH]1 [Pemetrexed] (partner 0.2 µM)
In a few lines:
as §1

Compound in the test “Metformin + Navitoclax”: CN(C)C(=N)NC(=N)N [Metformin] + CC1(C)CCC(c2ccc(Cl)cc2)=C(CN2CCN(c3ccc(C(=O)NS(=O)(=O)c4ccc(N[C@H](CCN5CCOCC5)CSc5ccccc5)c(S(=O)(=O)C(F)(F)F)c4)cc3)CC2)C1 [Navitoclax] (partner 0.5 µM)
In short, it runs like this: as §1

Compound in the test “Apatinib + Phenformin”: N#CC1(c2ccc(NC(=O)c3cccnc3NCc3ccncc3)cc2)CCCC1 [Apatinib] + N=C(N)NC(=N)NCCc1ccccc1 [Phenformin] (partner 250 µM)
In a few lines: as §1

Here are results for 6 cell lines from the supplement of paper PMC10307832.

In the case of H3255, the relative viability in the test with Metformin + Bortezomib (first compound 10 µM) amounted to 0.716; with Metformin + Bortezomib (first compound 31.62 µM) it was 0.89; with Metformin + Bortezomib (first compound 100 µM), 0.88; with Metformin + Bortezomib (first compound 316.23 µM), 0.991; in the test with Metformin + Bortezomib (first compound 1000 µM) it was 0.415; with Metformin + Pemetrexed (first compound 10 µM) it was 0.55. The relative viability with Metformin + Pemetrexed (first compound 31.62 µM) is 0.556; with Metformin + Pemetrexed (first compound 100 µM), 0.567; with Metformin + Pemetrexed (first compound 316.23 µM) it was 0.5; with Metformin + Pemetrexed (first compound 1000 µM) it was 0.564; in the test with Metformin + Navitoclax (first compound 10 µM), 0.503; in the test with Metformin + Navitoclax (first compound 31.62 µM), 0.623. Further, the relative viability was determined as 0.571 with Metformin + Navitoclax (first compound 100 µM); 0.531 with Metformin + Navitoclax (first compound 316.23 µM); 0.355 with Metformin + Navitoclax (first compound 1000 µM); 0.393 with Apatinib + Phenformin (first compound 0.08 µM); 0.398 with Apatinib + Phenformin (first compound 0.253 µM); 0.343 with Apatinib + Phenformin (first compound 0.8 µM). Further, the relative viability in the test with Apatinib + Phenformin (first compound 2.53 µM) was determined as 0.358; with Apatinib + Phenformin (first compound 8 µM), 0.32.

For the cell line EBC-1, the relative viability with Metformin + Bortezomib (first compound 10 µM) was determined as 0.699; with Metformin + Bortezomib (first compound 31.62 µM), 0.666; with Metformin + Bortezomib (first compound 100 µM) it was 0.618; with Metformin + Bortezomib (first compound 316.23 µM), 0.541; with Metformin + Bortezomib (first compound 1000 µM), 0.59; with Metformin + Navitoclax (first compound 10 µM), 0.364. The relative viability is 0.405 with Metformin + Navitoclax (first compound 31.62 µM), 0.356 with Metformin + Navitoclax (first compound 100 µM), 0.362 with Metformin + Navitoclax (first compound 316.23 µM) and 0.442 with Metformin + Navitoclax (first compound 1000 µM).

For the cell line NCI-H520, the relative viability with Metformin + Bortezomib (first compound 10 µM) worked out at 0.777; in the test with Metformin + Bortezomib (first compound 31.62 µM), 0.716; with Metformin + Bortezomib (first compound 100 µM), 0.75; with Metformin + Bortezomib (first compound 316.23 µM), 0.67; with Metformin + Bortezomib (first compound 1000 µM) it was 0.928; with Metformin + Pemetrexed (first compound 10 µM), 0.656. In addition, the relative viability with Metformin + Pemetrexed (first compound 31.62 µM) stood at 0.593; in the test with Metformin + Pemetrexed (first compound 100 µM), 0.688; with Metformin + Pemetrexed (first compound 316.23 µM), 0.657; in the test with Metformin + Pemetrexed (first compound 1000 µM), 0.689; with Metformin + Navitoclax (first compound 10 µM), 1.1; in the test with Metformin + Navitoclax (first compound 31.62 µM), 1.08. For the same cell line, the relative viability with Metformin + Navitoclax (first compound 100 µM) amounted to 1.13; with Metformin + Navitoclax (first compound 316.23 µM), 0.979; in the test with Metformin + Navitoclax (first compound 1000 µM) it was 1.19; with Apatinib + Phenformin (first compound 0.08 µM), 0.661; in the test with Apatinib + Phenformin (first compound 0.253 µM), 0.567; in the test with Apatinib + Phenformin (first compound 0.8 µM), 0.56. Besides, the relative viability in the test with Apatinib + Phenformin (first compound 2.53 µM) and with Apatinib + Phenformin (first compound 8 µM) was 0.391 each time.

As for SK-LU-1, the relative viability was 1.45 with Metformin + Bortezomib (first compound 10 µM); 1.2 with Metformin + Bortezomib (first compound 31.62 µM); 1.1 in the test with Metformin + Bortezomib (first compound 100 µM); 1.06 with Metformin + Bortezomib (first compound 316.23 µM); 1.27 with Metformin + Bortezomib (first compound 1000 µM); 0.853 with Metformin + Pemetrexed (first compound 10 µM). Besides, the relative viability in the test with Metformin + Pemetrexed (first compound 31.62 µM) is 0.956; with Metformin + Pemetrexed (first compound 100 µM) it was 0.97; with Metformin + Pemetrexed (first compound 316.23 µM), 0.892; with Metformin + Pemetrexed (first compound 1000 µM), 0.905; with Metformin + Navitoclax (first compound 10 µM) it was 0.891; with Metformin + Navitoclax (first compound 31.62 µM), 0.777. Further, the relative viability with Metformin + Navitoclax (first compound 100 µM) turned out to be 0.976; in the test with Metformin + Navitoclax (first compound 316.23 µM), 0.926; with Metformin + Navitoclax (first compound 1000 µM) it was 0.953; with Apatinib + Phenformin (first compound 0.08 µM) it was 0.607; in the test with Apatinib + Phenformin (first compound 0.253 µM), 0.594; in the test with Apatinib + Phenformin (first compound 0.8 µM), 0.471. Also, the relative viability with Apatinib + Phenformin (first compound 2.53 µM) was 0.413; with Apatinib + Phenformin (first compound 8 µM), 0.454.

With NCI-H1648, the relative viability in the test with Metformin + Pemetrexed (first compound 31.62 µM) turned out to be 0.664; in the test with Metformin + Pemetrexed (first compound 100 µM), 0.876; in the test with Metformin + Pemetrexed (first compound 316.23 µM), 0.67; with Metformin + Pemetrexed (first compound 1000 µM), 0.713.

For the cell line NCI-H522, the relative viability with Metformin + Pemetrexed (first compound 10 µM) came out at 1.15; in the test with Metformin + Pemetrexed (first compound 31.62 µM), 1.21; with Metformin + Pemetrexed (first compound 100 µM), 1.25; in the test with Metformin + Pemetrexed (first compound 316.23 µM) it was 1.12; with Metformin + Pemetrexed (first compound 1000 µM), 1.46; with Apatinib + Phenformin (first compound 0.08 µM), 0.708. In addition, the relative viability with Apatinib + Phenformin (first compound 0.253 µM) stood at 0.696; in the test with Apatinib + Phenformin (first compound 0.8 µM) it was 0.638; with Apatinib + Phenformin (first compound 2.53 µM), 0.617; with Apatinib + Phenformin (first compound 8 µM), 0.669.
